Like-named read-outs stand apart in the source and are kept apart here.
Experiments:
MYCN G4 DNA [1] = experiment: Surface plasmon resonance (SPR) with immobilized biotinylated MYCN G4 DNA; assay type: binding, human; conditions: for positive binding in SPR (SNR>3): single concentration 100 μM compound
Method in brief: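 Biotinylated MYCN G4 DNA, annealed at 95 °C, was captured on a streptavidin-coated CM5 chip; running buffer was 10 mM Tris pH 7.0, 100 mM KCl, 0.005% Tween 20, 5% DMSO. Compound series were injected at 25 μL/min (120 s association, 200 s dissociation), reference-subtracted, and KD was fitted with a Langmuir 1:1 model.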

MYCN G4 DNA [2] = experiment: Circular dichroism (CD) thermal melting assay of MYCN G4; assay type: binding, human; conditions: for increase of Tm (ΔTm) of MYCN G4: 20 μM compound, 10 mM Tris pH 7.0, 5 mM KCl
Protocol: For thermal melt assay, MYCN oligonucleotides were prepared in a low KCl buffer (10 mM Tris, pH7.0, 5 mM KCl) at 5 μM concentration. To test the stabilization effect, G4 samples were incubated with and without 20 μM compound (final solution containing 5% DMSO). Then a total of 300 μL solution was added in a cuvette and heated from 20° C. to 95° C. in a CD spectrometer with an interval of 1° C. To calculate the melting temperature (Tm), the peak of CD spectrum at 263 nm was tracked, and […] vs temperature was plotted and fitted using a nonlinear sigmoidal dose-response model with a variable slope in GraphPad Prism 8 software. The shifting of melting temperature (ΔTm) was calculated using Tm (compound)−Tm (DMSO).
For CD melting assay, MYCN oligonucleotides were prepared in KCl buffer (10 mM sodium phosphate, pH7.0, 5 mM KCl) at 5 μM concentration. To test the stabilization effect of the compounds, MYCN G4 DNA samples were mixed with/without the compound (final solution containing 5% DMSO) at designed concentration. Then a total of 300 μL solution was added in a cuvette and heated from 20 to 80° C. in a CD spectrometer with an interval of 1° C. To calculate the melting temperature (Tm), the peak of CD spectrum at 263 nm was tracked, and […] vs temperature was plotted and fitted using a nonlinear sigmoidal dose-response model with a variable slope in GraphPad Prism 8 software.

[3] = MYCN G4, Langmuir 1:1 model, read-out: SPR KD

Row | Structure (SMILES) | Kd (MYCN G4 DNA [1]; [3]) [µM] | positive binding in SPR (SNR>3) (MYCN G4 DNA [1]) | increase of Tm (ΔTm) of MYCN G4 (MYCN G4 DNA [2]) [°C] | Kd (MYCN G4 DNA [1]; MYCN hairpin G4, SPR titration, read-out: KD by SPR) [µM] | ΔTm of MYCN G4 (MYCN G4 DNA [2]; 10 mM sodium phosphate pH 7.0, 5 mM KCl, 5 μM DNA) [°C] | ΔTm of MYCN G4 at 40 μM (MYCN G4 DNA [2]; 40 μM MY-1, versus 20 μM)
1 | CCCN1CCN(c2nnc(-n3cccc3CNCCCN3CCCCCC3)s2)CC1 [Compound 1] | 11.7 ± 2.6 | hits | 4.7±0.7 |  |  | 
2 | COc1ccc(-c2noc(-c3ccc(NCCCN4CCCCCC4)nn3)n2)cc1 [MY-8, N-(3-(azepan-1-yl)propyl)-6-(3-(4-methoxyphenyl)-1,2,4-oxadiazol-5-yl)pyridazin-3-amine] | 1.5 ± 0.3 |  |  |  |  | 
3 | COc1ccc(-c2noc(-c3ccc(NCCCNc4c5ccc(Cl)cc5nc5ccc(OC)cc45)nn3)n2)cc1 [B33, N^1-(6-chloro-2-methoxyacridin-9-yl)-N^3-(6-(3-(4-methoxyphenyl)-1,2,4-oxadiazol-5-yl)pyridazin-3-yl)propane-1,3-diamine] |  |  |  | 0.07 ± 0.013 | 6.4 | 
4 | COc1ccc(-c2noc(-c3ccc(NCCCN4CCCC4)nn3)n2)cc1 [MY-1, 6-(3-(4-methoxyphenyl)-1,2,4-oxadiazol-5-yl)-N-(3-(pyrrolidin-1-yl)propyl)pyridazin-3-amine] | 3.6 ± 2.4 | hits | 3.7±0.5 |  |  | not significantly increased

— US20240287054A1, “COMPOUNDS THAT BIND NON-CANONICAL G-QUADRUPLEX STRUCTURES AND METHODS OF MAKING AND USING THE SAME” (The U.S.A., as Represented by the Secretary, Department of …, priority 2021, published 2024)
